Data reported in patent US10683272B2 (THE JOHNS HOPKINS UNIVERSITY, priority 2014, dated 2020).

Assay: radiation dosimetry (OLINDA/EXM) from baboon PET data
Format: Reference Adult Male based on baboon PET imaging data
Description: For each time-point, the activity concentration (in Bq/cm^3) was measured in each of the 14 delineated organs and multiplied by the organ volume to obtain the total activity per time point per organ. The measured values were then decay-corrected and divided by the baboon organ mass, determined by the CT density and volume from the drawn contours, and the injected radioactivity to obtain the fraction of initial radioactivity per gram (FIA/g) for each time point and each organ. The baboon FIA/g values were then converted to human FIA (per organ) using the following equation (Schwartz et al., 2011; Woodard et al., 1975): […]
That approach assumes that the concentration of activity in a particular tissue relative to the overall concentration in the whole body is preserved across species (i.e., organ concentration/total body concentration is the same for baboon and man). The resulting human FIA values were plotted as a function of time (nine data points) for each organ and fit to a bi-exponential expression: FIA(t)=A1.e^−(λ1^bio^.t)+A2.e^−(Δ2^bio^.t) (2)
where A1, A2, λ1bio, and λ2bio are fit parameters. The sum of A1 and A2 give the back-extrapolated, time-zero fraction of administered radioactivity in each organ, and λ1bio and λ2bio are the biological clearance constants. The equation for the time-integrated activity coefficient [TIAC, previously known as residence time (Bolch et al., 2009) for each source organ was obtained, as its name implies, by integrating equation (2) and introducing a physical decay term, λφ, which depends on the isotope used:
TIACs were calculated for ^90Y, ^177Lu and ^86Y, with their corresponding physical decay constants: ^90Y λφ=0.01083 h^−1 (T1/2=64.0 h); ^177Lu λφ=0.00429 h^−1 (T1/2=161.52 h) and ^86Y λφ=0.04702 h^−1 (T1/2=14.74 h), respectively voiding. Radiation absorbed doses were obtained by converting time-integrated activity to absorbed doses according to the MIRD absorbed fraction methodology (Bolch et al., 2009) through the use of the OLINDA/EXM software (Stabin et al., 2005). The TIAC for the urinary bladder was obtained using the MIRD bladder model implemented in OLINDA/EXM. Input to that model requires the whole-body TIAC, which was obtained from the equation FIA(t)=A. e^(−λ^bio^t) fitted to whole-body retention kinetics. The voiding interval was set to 2 h. The TIACs were then input into OLINDA/EXM (Stabin et al., 2005), and the resulting absorbed dose per unit of radioactivity obtained for the 14 organs. The specific kidney model in OLINDA/EXM was used to obtain the renal cortex dose values. The absorbed dose from organs external to the kidney was added to the renal cortex dose calculated from the internal kidney model. The specific prostate model was used for prostate self-dose, and external dose to the bladder was added as a surrogate for the whole body to prostate dose. The self-dose component of the absorbed dose per unit activity for the salivary glands was obtained using 3D-RD Monte Carlo (EGSnrc) and a human CT with delineated salivary glands. The cross-dose component was taken by assuming the same cross-dose for a like-sized organ (pancreas).
Measured activity concentration (in Bq/cm^3) values per time point per organ were decay-corrected and divided by the baboon organ mass, determined by the CT density and volume from the drawn contours, and the injected radioactivity to obtain the fraction of initial radioactivity per gram (FIA/g) for each time point and each organ. The baboon FIA/g values were then converted to human FIA (per organ) using the related equation (Olszewski et al., 2004; Schwartz et al., 2011). The resulting human FIA values were then plotted as a function of time and fit to a bi-exponential expression and the value for the time-integrated activity coefficient (TIAC, previously known as residence time (Woodard et al., 1975)) for each source organ was calculated. […]

Structure (SMILES): O=C([O-])CN1CCN(CC(=O)[O-])CCN(CC(=O)[O-])C(Cc2ccc(NC(=S)NCCCCNC(=O)CCCCCCC(=O)NCCCC[C@H](NC(=O)N[C@@H](CCC(=O)O)C(=O)O)C(=O)O)cc2)CN(CC(=O)[O-])CC1.[86Y+3] (some centres unmarked) [^86Y-6]
- Organ absorbed dose, Adrenals (^86Y): 8.62E−02 mGy/MBq
- Organ absorbed dose, Brain (^86Y): 2.30E−02 mGy/MBq
- Organ absorbed dose, Breasts (^86Y): 4.52E−02 mGy/MBq
- Organ absorbed dose, Gallbladder wall (^86Y): 7.88E−02 mGy/MBq
- Organ absorbed dose, Heart wall (^86Y): 6.70E−02 mGy/MBq
- Organ absorbed dose, Kidneys (^86Y): 4.03E−01 mGy/MBq
- Organ absorbed dose, LLI wall (^86Y): 9.61E−02 mGy/MBq
- Organ absorbed dose, Liver (^86Y): 7.19E−02 mGy/MBq
- Organ absorbed dose, Lungs (^86Y): 5.98E−02 mGy/MBq
- Organ absorbed dose, Muscle (^86Y): 5.47E−02 mGy/MBq
- Organ absorbed dose, Osteogenic cells (^86Y): 7.19E−02 mGy/MBq
- Organ absorbed dose, Ovaries (^86Y): 9.48E−02 mGy/MBq
- Organ absorbed dose, Pancreas (^86Y): 8.09E−02 mGy/MBq
- Organ absorbed dose, Prostate (^86Y): 7.64E−02 mGy/MBq
- Organ absorbed dose, Red marrow (^86Y): 6.29E−02 mGy/MBq
- Organ absorbed dose, Renal cortex (^86Y): 4.24E−01 mGy/MBq
- Organ absorbed dose, Salivary glands (^86Y): 1.78E−01 mGy/MBq
- Organ absorbed dose, Skin (^86Y): 3.97E−02 mGy/MBq
- Organ absorbed dose, Small intestine (^86Y): 8.72E−02 mGy/MBq
- Organ absorbed dose, Spleen (^86Y): 7.23E−02 mGy/MBq
- Organ absorbed dose, Stomach wall (^86Y): 6.69E−02 mGy/MBq
- Organ absorbed dose, Testes (^86Y): 7.23E−02 mGy/MBq
- Organ absorbed dose, Thymus (^86Y): 5.38E−02 mGy/MBq
- Organ absorbed dose, Thyroid (^86Y): 5.07E−02 mGy/MBq
- Organ absorbed dose, ULI wall (^86Y): 8.56E−02 mGy/MBq
- Organ absorbed dose, Urinary bladder wall (^86Y): 6.17E−01 mGy/MBq
- Organ absorbed dose, Uterus (^86Y): 1.34E−01 mGy/MBq
- Time-integrated activity coefficient (residence time), Brain (^86Y): 1.41E−02 MBq-h/MBq
- Time-integrated activity coefficient (residence time), Heart contents (^86Y): 2.55E−02 MBq-h/MBq
- Time-integrated activity coefficient (residence time), Kidneys (^86Y): 4.08E−01 MBq-h/MBq
- Time-integrated activity coefficient (residence time), Liver (^86Y): 1.37E−01 MBq-h/MBq
- Time-integrated activity coefficient (residence time), Lungs (^86Y): 9.70E−02 MBq-h/MBq
- Time-integrated activity coefficient (residence time), Muscle (^86Y): 4.76E−01 MBq-h/MBq
- Time-integrated activity coefficient (residence time), Pancreas (^86Y): 6.37E−03 MBq-h/MBq
- Time-integrated activity coefficient (residence time), Prostate (^86Y): 1.15E−03 MBq-h/MBq
- Time-integrated activity coefficient (residence time), Remainder (^86Y): 3.64 MBq-h/MBq
- Time-integrated activity coefficient (residence time), Renal cortex (^86Y): 3.23E−01 MBq-h/MBq
- Time-integrated activity coefficient (residence time), Salivary Glands (^86Y): 4.45E−02 MBq-h/MBq
- Time-integrated activity coefficient (residence time), Small intestine (^86Y): 9.31E−03 MBq-h/MBq
- Time-integrated activity coefficient (residence time), Spleen (^86Y): 7.41E−03 MBq-h/MBq
- Time-integrated activity coefficient (residence time), Stomach (^86Y): 6.44E−03 MBq-h/MBq
- Time-integrated activity coefficient (residence time), ULI (^86Y): 1.99E−02 MBq-h/MBq
- Time-integrated activity coefficient (residence time), Ur. bladder contents (^86Y): 7.41E−01 MBq-h/MBq
- effective dose (^86Y, calculated in OLINDA/EXM): 0.099 mSv/MBq
- Organ absorbed dose, Adrenals (^90Y): 3.46E−02 mGy/MBq
- Organ absorbed dose, Brain (^90Y): 6.79E−03 mGy/MBq
- Organ absorbed dose, Breasts (^90Y): 3.46E−02 mGy/MBq
- Organ absorbed dose, Gallbladder wall (^90Y): 3.46E−02 mGy/MBq
- Organ absorbed dose, Heart wall (^90Y): 5.33E−02 mGy/MBq
- Organ absorbed dose, Kidneys (^90Y): 1.13 mGy/MBq
- Organ absorbed dose, LLI wall (^90Y): 3.46E−02 mGy/MBq
- Organ absorbed dose, Liver (^90Y): 4.99E−02 mGy/MBq
- Organ absorbed dose, Lungs (^90Y): 6.57E−02 mGy/MBq
- Organ absorbed dose, Muscle (^90Y): 1.32E−02 mGy/MBq
- Organ absorbed dose, Osteogenic cells (^90Y): 5.26E−02 mGy/MBq
- Organ absorbed dose, Ovaries (^90Y): 3.46E−02 mGy/MBq
- Organ absorbed dose, Pancreas (^90Y): 4.64E−02 mGy/MBq
- Organ absorbed dose, Prostate (^90Y): 4.78E−02 mGy/MBq
- Organ absorbed dose, Red marrow (^90Y): 2.41E−02 mGy/MBq
- Organ absorbed dose, Renal cortex (^90Y): 1.19 mGy/MBq
- Organ absorbed dose, Salivary glands (^90Y): 2.79E−01 mGy/MBq
- Organ absorbed dose, Skin (^90Y): 3.46E−02 mGy/MBq
- Organ absorbed dose, Small intestine (^90Y): 4.29E−02 mGy/MBq
- Organ absorbed dose, Spleen (^90Y): 1.64E−02 mGy/MBq
- Organ absorbed dose, Stomach wall (^90Y): 3.46E−02 mGy/MBq
